Where two headings read alike, the source gives them in different places.
Tests used:
[1] = Thermodynamic stability of the forms, energy/temperature diagram (FIG. 27); format: physicochemical
Text: FIG. 27 is an energy/temperature diagram of Forms III, IV and VII

[2] = Solubility via potentiometric titration (pSOL solubility profiler); format: physicochemical; conditions: for Solubility data: hydrochloride; for solubility: water, thermodynamic from solid
Protocol: Solubility data of Forms II, III, IV, V, VI and VIII are measured according to Alex Avdeef et al, Pharm. Pharmacol. Commun.
The pSOLTM solubility profiler, automatically collects potentiometric data, calculates the pH-solubility profiles, and prints the values at 0.1 pH unit intervals. Intrinsic solubilities in the milli-, micro- and nanogram levels can be determined. Also presented are two new concepts, the Flux Factor Profile and Dose Limit Profile. Both concepts follow the guidelines consistent with the BioPharmaceutics Classification Scheme.

## Cl.N#Cc1ccc2[nH]cc(CCCCN3CCN(c4ccc5oc(C(N)=O)cc5c4)CC3)c2c1 [Form III, 1-[4-(5-cyanoindol-3-yl)butyl]-4-(2-carbamoyl-benzofuran-5-yl)-piperazine hydrochloride]
[1]; room temperature
  relative (thermodynamic) stability of the form at room temperature: the most stable form at room temperature
[2]; potentiometric titration according to Avdeef et al., listed as III
  Solubility data: 0.12 µg/mL

## Cl.N#Cc1ccc2[nH]cc(CCCCN3CCN(c4ccc5oc(C(N)=O)cc5c4)CC3)c2c1 [Form II, 1-[4-(5-cyanoindol-3-yl)butyl]-4-(2-carbamoyl-benzofuran-5-yl)-piperazine hydrochloride]
[2]; potentiometric titration according to Avdeef et al., listed as II
  Solubility data: 0.03 µg/mL

## Cl.N#Cc1ccc2[nH]cc(CCCCN3CCN(c4ccc5oc(C(N)=O)cc5c4)CC3)c2c1 [Form I, 1-[4-(5-cyanoindol-3-yl)butyl]-4-(2-carbamoyl-benzofuran-5-yl)-piperazine hydrochloride]
[2]; potentiometric titration according to Avdeef et al., listed as I
  Solubility data: 0.08 µg/mL

## Cl.N#Cc1ccc2[nH]cc(CCCCN3CCN(c4ccc5oc(C(N)=O)cc5c4)CC3)c2c1.O [Form V, 1-[4-(5-cyanoindol-3-yl)butyl]-4-(2-carbamoyl-benzofuran-5-yl)-piperazine hydrochloride monohydrate]
[2]; potentiometric titration according to Avdeef et al., read-out: Solubility data
  solubility: 0.18 µg/mL

## Cl.N#Cc1ccc2[nH]cc(CCCCN3CCN(c4ccc5oc(C(N)=O)cc5c4)CC3)c2c1 [Form IV, 1-[4-(5-cyanoindol-3-yl)butyl]-4-(2-carbamoyl-benzofuran-5-yl)-piperazine hydrochloride]
[1]; higher temperatures, e.g. >100° C.
  relative stability of the form at higher temperatures: the most stable form at higher temperatures
[2]; potentiometric titration according to Avdeef et al., listed as IV
  Solubility data: 0.33 µg/mL
[2]; in water, read-out: solubility in water
  solubility: 0.328 µg/mL

## Cl.N#Cc1ccc2[nH]cc(CCCCN3CCN(c4ccc5oc(C(N)=O)cc5c4)CC3)c2c1 [Form VI, 1-[4-(5-cyanoindol-3-yl)butyl]-4-(2-carbamoyl-benzofuran-5-yl)-piperazine hydrochloride]
[2]; potentiometric titration according to Avdeef et al., listed as VI
  Solubility data: 0.23 µg/mL

Source: patent publication US8193195B2, “Polymorphic forms of 1-'4-(5-cyanoindol-3-yl) butyl-4-(2-carbamoylbenzofuran-5-yl) piperazine hydrochloride” (Merck Patentgesellschaft, priority 2001, dated 2012)
